The experiment relates to CEM cells HIV-1 protection, formazan growth assay. The experiment can be described thus: NCI AIDS Antiviral Assay. As to conditions: for IC50: measured here: growth of uninfected CEM cells. A digest of the protocol: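 Five concentrations of each compound were applied to infected and uninfected human CEM cells. Protection from HIV-1 was judged from growth measured with a soluble formazan assay.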

Where “and” joins values, the source holds several entries; their conditions need not be identical. Identical values can stand only once. Calls of active or inactive are those of the source.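 How the source made its calls: active means compounds giving half or more protection of infected cells from virus-caused growth loss, again on retest; inactive means the rest.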

Regarding `COC(=O)[C@H](Cc1ccccc1)NP(=O)(OCCC#N)OCC1OC(n2cc(C)c(=O)[nH]c2=O)CC1N=[N+]=[N-]` (some centres not stated), the EC50 was 0.513 µM and the IC50 is greater than 200 µM.

As for `O=C(/C=C/c1ccccc1[N+](=O)[O-])c1ccccc1`, the EC50 was greater than 39.8 µM and the IC50 amounted to 6.92 µM.

Consider `O=C1NC2C=CN(Cc3ccccc3)C=C2C(=O)N2CCCC12` (configuration not stated), for which the EC50 is greater than 6.46 µM and the IC50 is greater than 6.46 µM.

In the case of `O=C(O)c1cc(CC2Cc3cc4c(cc3C2=O)CCC4)cc2c1CCC2` (configuration not stated), the EC50 was greater than 200 µM and the IC50 turned out to be 53.7 µM.

Take `O=C1N[C@H]2c3c(Cl)sc(Cl)c3C(=O)[C@H]2O1`: the EC50 was greater than 20 µM and the IC50 stood at 0.955 µM.

Take `CCOC(=O)c1cc2c3c(c(O)c(OC)c2s1)N(C(=O)c1cc2c4c(c(O)c(OC)c2s1)N(C(C)=O)CC4)CC3`: the result was inactive.

Regarding `CC(C)(C)OC(=O)NC1CCC[C@H]1O` (some centres not stated), the result was inactive.

Turning to `CC(=O)OCC1OC(N2C(=O)[C@H](Oc3ccccc3)[C@@H]2c2ccccc2)C(OC(C)=O)C(OC(C)=O)C1OC(C)=O` (some centres not stated), the EC50 was greater than 100 µM and the IC50 was greater than 100 µM.

As to `C[CH2][Pb]([CH2]C)([CH2]C)[O]C(=O)C(F)(F)F`, the EC50 was greater than 200 µM and the IC50 was determined as 31.6 µM.

For `COc1cccc(NC(=O)/C(CS(=O)(=O)CCC(C(C)=O)C(C)=O)=N\NC(C)(C)C)c1`, the EC50 was 25.7 µM and the IC50 came to 550 µM.

As to `CC(=O)NNc1nc(C)c(C(/C=C/c2ccc(Cl)cc2)=N/NC(=S)NN)s1`, the EC50 was greater than 44.7 µM and the IC50 was greater than 44.7 µM.

On to `CCCSc1nc(COC(=O)NC)c(COC(=O)NC)n1C`, for which the EC50 was greater than 200 µM and the IC50 is 83.2 µM.

Take `CCCCCCCc1ccc(OC2OC(COC(C)=O)C(OC(C)=O)C(OC(C)=O)C2OC(C)=O)cc1` (configuration not stated): the EC50 is greater than 91.2 µM; the IC50 is 49 µM and > 85.1 µM.

Regarding `CC1=NC(C(=O)O)Cc2c1[nH]c1ccccc21` (configuration not stated), the result was inactive.

Consider `CCc1cc(Cc2ccc(C)c(NC(=O)C(=O)C3C(=O)NC(=O)NC3=O)c2CC)cc(C)c1NC(=O)C(=O)C1C(=O)NC(=O)NC1=O`, for which the EC50 is greater than 77.6 µM and the IC50 is greater than 77.6 µM.

`CC(C)OC(=O)c1ccc(NCC2=CC(=O)C=CC2=O)cc1`: the EC50 was greater than 200 µM and the IC50 is 7.76 µM.

Consider `COC(=O)c1ccccc1C1CN=NC12Cc1c(C)cccc1C2=O` (configuration not stated), for which the EC50 is greater than 200 µM and the IC50 was determined as 151 µM.

For the compound `COc1cc(CC(C)N[C@@H](C)c2ccccc2)cc(OC)c1` (some centres not stated), the EC50 was greater than 200 µM; the IC50 is 18.6 µM and 64.6 µM.

Consider `Cc1ccc(N=Nc2c(N)nn3cc4c(nc23)CCCCC4)cc1`, for which the EC50 was greater than 200 µM and the IC50 is greater than 200 µM.

With `N#Cc1c2ccccc2cn1-c1ccc(F)cc1`, the EC50 was greater than 200 µM and the IC50 came to 79.4 µM.

For the compound `Cc1ccc(S(=O)(=O)c2[nH]cc(/C(=C\C3CCCCC3)[N+](=O)[O-])c2C2CCCCC2)cc1`, the EC50 is greater than 2 µM and the IC50 was determined as 1.15 µM.

With `COCCNc1cncc(C(N)=O)c1`, the EC50 is greater than 200 µM and the IC50 was greater than 200 µM.

Take `CCOC(=O)c1ccc(CS(=O)(=O)c2ccccc2)cc1`: the EC50 was greater than 23.4 µM and the 50% inhibitory concentration (IC50) is greater than 23.4 µM.

On to `CCN(CC)CSc1nc2ccccc2[nH]1`, for which the outcome was inactive.

Take `N#Cc1c(N2CCCC2)ncn(-c2ccccc2)c1=O`: the EC50 was greater than 200 µM and the IC50 is greater than 200 µM.

Take `CN(C)c1ccc(NN=C2SC(=Nc3ccccc3)C(=Nc3ccccc3)S2)cc1`: the EC50 is greater than 200 µM and the IC50 stood at 8.13 µM.

Take `O=C1Cc2c(-c3ccccc3)cc(-c3ccc(Cl)cc3)nc2-c2ccccc2N1`: the EC50 was greater than 200 µM and the IC50 came out at 93.3 µM.

On to `COC(=O)[C@@H]1CC2(CCOCc3ccccc3)C=CCN3CC[C@@]1(c1ccccc1NC(=O)C(C)(C)C)C32` (some centres not stated), for which the EC50 is greater than 126 µM and the IC50 is greater than 126 µM.

`CC(=O)Nc1cc(NC(C)=O)c(N=O)c(NC(C)=O)n1`: the result was inactive.

With `O=C1CCCC1(CCSc1ccccc1)C(CCCl)Sc1ccccc1` (configuration not stated), the EC50 is greater than 8.91 µM and the IC50 is greater than 8.91 µM.

For the compound `O=C(OCCO)c1c(Cl)c(Cl)c(Cl)c(Cl)c1-c1c2cc(Br)c(=O)c(Br)c-2oc2c(Br)c(O)c(Br)cc12`, the EC50 is greater than 61.7 µM and the IC50 worked out at 20.9 µM.

Regarding `CC1C(c2ccc(Cl)cc2)c2cc3c(cc2OC1N1CCOCC1)OCO3` (configuration not stated), the EC50 was greater than 100 µM and the IC50 turned out to be 21.4 µM.

`CCOc1ncn(-c2ccc(NC(=S)Nc3ncccn3)cc2)n1`: the EC50 is greater than 200 µM and the IC50 was 95.5 µM.

Consider `COC(=O)C1c2c(c3ccccc3n2C(=O)OC)CCN2CCC1C(S(=O)(=O)c1ccccc1)C2=O` (configuration not stated), for which the half-maximal effective concentration (EC50) was 363 µM and the IC50 worked out at 447 µM.

Turning to `Cc1ccc(NC(=O)CCC(=O)C(C#N)c2ccc(Cl)cc2)cc1C` (configuration not stated), the EC50 is greater than 708 µM and the IC50 is greater than 708 µM.

For the compound `O=[N+]([O-])c1nccn1CC1OC(n2ccnc2[N+](=O)[O-])C(O)C(O)C1O` (configuration not stated), the EC50 was greater than 200 µM and the IC50 is greater than 200 µM.

Consider `CC(=O)OC1CC[C@@]2(C)C(=CC[C@@H]3[C@@H]2CC[C@]2(C)Nc4c(cnn4-c4ccc(F)cc4)C[C@@H]32)C1` (some centres not stated), for which the EC50 was greater than 10 µM and the IC50 was greater than 10 µM.

With `Cc1c2ccc(Cl)cc2nc2ccc(OCCCCCCNC(=O)[C@@H](N)CCCN=C(N)N)cc12`, the EC50 was greater than 100 µM and the IC50 amounted to 15.5 µM.

On to `c1ccc(N=c2snc3scc(-c4ccccc4)n23)cc1`, for which the EC50 was greater than 23.4 µM and the IC50 is greater than 23.4 µM.

Take `CNc1ccc([N+](=O)[O-])cc1C(=O)N1CCC[C@H]1CO`: the EC50 was greater than 200 µM and the IC50 was greater than 200 µM.

In the case of `O=C(O)/C=C\SCCCC(=O)O`, the EC50 was greater than 1320 µM; the IC50 was > 1320 µM and 1100 µM.

Consider `c1ccc(OCc2nnc3n2N=C(c2ccccc2)CS3)cc1`, for which the result was inactive.

For `O=C(O)c1ccc(Nc2nc3ccc(C(F)(F)F)cc3nc2C(=O)O)cc1`, the EC50 was greater than 200 µM and the IC50 is greater than 200 µM.

With `O=C1C=C(NC(=O)c2ccc(Cl)cc2)c2ncccc2C1=O`, the result was inactive.

For `CC1OC(OC2C(O)COC(OC3C(C)OC(OC4C(OC(=O)[C@]56CCC(C)(C)C[C@@H]5C5=CCC7[C@@]8(C)C[C@H](O)[C@H](OC9OC(CO)C(O)C(OC%10OC(CO)C(O)C(O)C%10O)C9O)[C@@](C)(CO)[C@@H]8CC[C@@]7(C)[C@]5(C)CC6)OCC(O)C4O)C(O)C3O)C2O)C(O)C(O)C1O` (some centres not stated), the EC50 is greater than 58.9 µM and the IC50 worked out at 21.4 µM.

For the compound `CCCCC(/C=C\COC1CCCCO1)=C/C(=O)OCC` (configuration not stated), the EC50 was greater than 126 µM and the IC50 was 77.6 µM.

Turning to `CN(C)c1ccc(/C=C(\NC(=O)c2ccccc2)C(=O)Nc2ccccc2C(=O)O)cc1`, the EC50 is greater than 100 µM and the IC50 is greater than 100 µM.

For the compound `CC(=O)OC1COC(n2c(-c3ccc(Cl)cc3)cc(-c3ccccc3)c(C#N)c2=S)C(OC(C)=O)C1OC(C)=O` (configuration not stated), the EC50 is greater than 200 µM and the IC50 is greater than 200 µM.

`O=[N+]([O-])c1ccc(/C=C/C=C/C=C/C=C/c2ccc(S(=O)(=O)F)cc2Cl)c(Cl)c1`: the EC50 was greater than 200 µM and the IC50 came out at 186 µM.

Consider `Cn1c(=O)nc2n(-c3cccc(F)c3)c3ccccc3nc-2c1=O`, for which the result was inactive.

Consider `CCOC(=O)/C(=C\c1ccc(O)c(OC)c1)C(=O)c1ccccc1`, for which the EC50 was greater than 288 µM and the half-inhibitory concentration (IC50) is 41.7 µM.

As for `COc1cc2c(cc1OC)-c1c(cc(OC)c(OC)c1OC)C2=O`, the outcome was inactive.

In the case of `NC(=S)N/C=C(/c1ccc(Cl)cc1Cl)S(=O)(=O)Cc1ccc(Cl)cc1Cl`, the EC50 was greater than 100 µM and the IC50 is greater than 100 µM.

As to `C(=Nc1ccccc1)c1ccc(C=Nc2ccccc2)cc1`, the EC50 was greater than 3.63 µM and the IC50 is greater than 3.63 µM.

`O=C1c2ccccc2-c2cc3ccccc3c(=O)n21`: the outcome was inactive.

With `CC(=O)OCC1OC(Sc2nc(-c3ccc(Cl)cc3)c(C#N)c(=O)n2C2OC(COC(C)=O)C(OC(C)=O)C(OC(C)=O)C2OC(C)=O)C(OC(C)=O)C(OC(C)=O)C1OC(C)=O` (configuration not stated), the EC50 is greater than 100 µM, the outcome was inactive and the IC50 turned out to be 18.6 µM.

`CSc1c(C#N)c(=O)n(N)c2c1c(C)nn2-c1ccccc1`: the EC50 was greater than 200 µM and the IC50 came out at 26.9 µM.

Turning to `Cc1cc(N(CCC#N)CCC#N)ccc1/C(N=Nc1ccccc1)=N\NC(=O)c1ccccc1`, the EC50 was greater than 200 µM and the IC50 is 13.8 µM.

Regarding `C=C(Br)CC12CC3(CCC1c1ccc(OC)cc1C2=O)OCCO3` (configuration not stated), the EC50 is greater than 110 µM and the IC50 is greater than 110 µM.

As to `CCOC(=O)NN(C(=O)OCC)C(=C(C1CCCCC1)N1CCOCC1)N(NC(=O)OCC)C(=O)OCC`, the EC50 was 126 µM and the IC50 stood at 170 µM.

Regarding `CCNc1nc2c(=O)n(C)c(=O)n(C)c2s1`, the EC50 is greater than 186 µM and the IC50 was greater than 186 µM.

On to `CC1Cn2c(=O)[nH]c3cccc(c32)NC1=O` (configuration not stated), for which the EC50 is greater than 200 µM and the IC50 turned out to be 44.7 µM.

Consider `C=C1C(=O)C23[C@H](O)C1CC[C@H]2[C@]12COC3(O)[C@@H](O)[C@@H]1C(C)(C)CC[C@@H]2O`, for which the EC50 was greater than 347 µM and the IC50 was 1.95 µM.

For `CCOP(=O)(CC(=O)c1ccccc1)OCC`, the EC50 was greater than 977 µM and the IC50 is greater than 977 µM.

On to `NS(=O)(=O)c1ccc(CNC(=O)c2ccccc2SC(=O)CCC[n+]2ccccc2)cc1`, for which the EC50 was 4.79 µM and the IC50 was 13.8 µM.

On to `O=C1C=C2CCN(C(=O)c3ccccc3)CC2O1` (configuration not stated), for which the EC50 is greater than 200 µM and the IC50 is greater than 200 µM.

With `CO/N=C(\C(=O)Nc1cncs1)c1csc(NC(c2ccccc2)(c2ccccc2)c2ccccc2)n1`, the EC50 is greater than 200 µM and the IC50 was greater than 200 µM.

On to `Cc1cccc(C)c1NC(=O)CCC/C(CC(=O)c1ccc(F)cc1)=N\NC(=O)C(=O)NN`, for which the EC50 is greater than 148 µM and the IC50 is greater than 148 µM.

By EC50 is commonly meant the concentration giving half of the maximal effect. As a reminder, the IC50 is the concentration needed to halve the response being measured. The low end stands for greater potency in that assay, the high end for weaker potency in that assay.

These data come from PubChem BioAssay AID179 (DTP/NCI, 2004).
